In the NIST ThermoML archive (doi:10.1016/j.jct.2006.04.007):

Experiment: mn = molality of the nth substance listed, in mol/kg
Details: 350 kPa, Liquid; for apparent molar heat capacity: Extra sensitive DSC

CNC(C)=O [N-methylacetamide] + O
Details	apparent molar heat capacity, 278.15 K [J/K/mol]	apparent molar heat capacity, 283.15 K [J/K/mol]	apparent molar heat capacity, 288.15 K [J/K/mol]	apparent molar heat capacity, 293.15 K [J/K/mol]	apparent molar heat capacity, 298.15 K [J/K/mol]	apparent molar heat capacity, 303.15 K [J/K/mol]	mass density, 278.15 K [kg/m3]	mass density, 283.15 K [kg/m3]	mass density, 288.15 K [kg/m3]
m1 = 0.015	221	217	213	220	228	232	999.98	999.8	999.2
m1 = 0.04	230	225	221	230	238	245	1000.02	999.78	999.19
m1 = 0.07	243.9	246	247	250	252.1	–	1000.14	999.85	999.23
m1 = 0.1001	239.7	242.5	247.1	251.4	254.8	–	1000.14	999.83	999.22
m1 = 0.2002	240.2	243.9	247.9	251.6	254.7	–	1000.14	999.82	999.16
m1 = 0.4	238.2	242.3	246	249.2	251.85	–	1000.26	999.89	999.24
m1 = 0.599	251.1	254.9	257.6	259.8	261.9	–	1000.35	1000	999.28
m1 = 0.8028	237.5	242.4	245.8	248.7	251.4	–	1000.66	1000.14	999.39
m1 = 1	236.3	241.4	244.9	248	250.8	–	1000.98	1000.43	999.54
